78 compounds from the METLIN SMRT retention time set (Domingo-Almenara et al. 2019) can be followed below.

The nature of the data set: gradient 5% acetonitrile 3 min, to 50% in 2 min, to 85% in 15 min, held 3 min, 100 µL/min. Particulars: column: Zorbax Extend-C18 2.1 x 50 mm; eluents: water / acetonitrile, 0.1% formic acid. Summed up:
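Retention time was recorded from adduct peaks, which were picked computationally and each inspected manually. Pure standards ran in mixtures of ~100 molecules on HPLC coupled to a quadrupole time-of-flight mass spectrometer, in positive and negative ionization mode, through a Zorbax Extend-C18 column (2.1 × 50 mm, 1.8 μm) at 100 μL/min. Eluents were water and acetonitrile, each with 0.1% formic acid.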
Compound `O=C(c1cccnc1)N1CCC2(CC1)N=C(c1ccc(Cl)cc1)NO2` showed an RP-LC retention time of 682 s. For `COc1ccc(S(=O)(=O)N2[C@H]3CC[C@@H]2c2cnc(C)nc2C3)cc1` the value was 693 s. As for `COc1ccc(NC(=O)C2CCN(S(=O)(=O)c3ccc4c(c3)NC(=O)C(C)O4)CC2)cc1Cl` (stereo not drawn), the figure is 853 s; as for `COc1nn(C)cc1C(=O)NCC(=O)N1CCc2ccccc2C1`, 657 s; as for `O=C(CN1C(=O)CCCc2cc(S(=O)(=O)N3CCCCC3)ccc21)N1CCc2ccccc2C1`, 922 s. For `Cc1ccc(-c2cc(C(=O)N3CCN(c4ccc(N5CCOCC5)nn4)CC3)[nH]n2)c(C)c1` the value was 638 s; for `Clc1ccc(Cl)c(-c2ccc(-c3nn4c(-c5ccco5)nnc4s3)o2)c1`, 1260 s; for `CCOC(=O)c1nc(Nc2ccc(Cl)cc2)c2ccccc2n1`, 957 s. The compound `Cc1nnc(-c2coc(S(=O)(=O)N3CCN(C4CCCCC4)CC3)c2)o1` had an RP-LC retention time of 615 s. For `N#Cc1cccc(NC(=O)Cn2cccc(-c3nc(-c4ccc(Cl)cc4)no3)c2=O)c1` the value was 926 s; for `CN(C)C(=O)C1c2ccccc2CCN1CC(=O)N1CCN(c2ccc(Cl)cc2)CC1` (stereo not drawn), 742 s. In turn, `CN1C(=O)c2cccn2CC1CNC(=O)NCc1ccc(F)cc1` (stereo not drawn) came in with an RP-LC retention time of 658 s. As for `Cc1cccc(N2CC(C(=O)N3CCCCCC3)CC2=O)c1` (stereo not drawn), the figure is 802 s; as for `CCc1ccc(NC(=O)Cc2nnc3cc(-c4nc(CC)no4)ccn23)cc1`, 826 s; as for `Cn1c(=O)sc2cc(S(=O)(=O)N3CCC(C(=O)NCc4ccccc4Cl)CC3)ccc21`, 883 s. For `CCCN1C(=O)CN(S(=O)(=O)c2ccc(C)cc2)CC1(C)C(=O)NCc1ccccc1` (stereo not drawn), the RP-LC retention time turned out to be 864 s. As for `O=S(=O)(c1cccc2nsnc12)N1CCCn2nc(-c3ccncc3)cc2C1`, the figure is 591 s; as for `OC(c1ccccc1)(c1ccccc1)C1CN2CCC1CC2` (stereo not drawn), 733 s.

On to `O=C(NCCCN1CCN(c2ccccc2F)CC1)C1CCCN(c2nc3cccnc3s2)C1` (stereo not drawn), for which the RP-LC retention time was found to be 652 s.

For `COc1cc(-c2nc3cc(C)ccn3c2Nc2ccc(C)cc2)ccc1O`, the RP-LC retention time amounted to 686 s.

For `CCCCn1cc(S(=O)(=O)Nc2cc(F)ccc2C)c2cccnc21`, the RP-LC retention time was determined as 995 s. As for `COc1cc(NC(=O)NCC(c2cccnc2)c2c[nH]c3ccccc23)cc(OC)c1OC` (stereo not drawn), the figure is 631 s; as for `Cc1ccc(C(=O)N2CCc3[nH]cnc3C23CCCCC3)s1`, 606 s.

On to `Cc1nnc(-c2nnc(NCCC(C)C)c3ccccc23)o1`, for which the RP-LC retention time stood at 710 s.

On to `CC(C)(C)c1noc(-c2cccnc2-n2cnc(C(=O)Nc3cccc(F)c3)c2)n1`, for which the RP-LC retention time amounted to 1000 s. For the compound `Cc1noc(-c2ccc(=O)n(Cc3nc(-c4ccccc4)oc3C)c2)n1`, the RP-LC retention time is 804 s. For `O=C(Cn1cccc1-c1nc(-c2ccc3c(c2)OCO3)no1)Nc1cc(F)cc(F)c1` the value was 1060 s; for `Cc1ccc(-n2ncc3c(=O)n(Cc4nc(-c5ccc(F)c(Cl)c5)no4)cnc32)cc1`, 1190 s; for `O=C(c1ccc2nc[nH]c2c1)N1CCCN(c2cc(-c3ccc(Cl)cc3)[nH]n2)CC1`, 620 s. For `CCOC(=O)C1CCN(c2cc(C)nc3nc(-c4ccc(OC)cc4)nn23)CC1` the value was 881 s; for `COc1ccc(NC(=O)c2cc3c(=O)n(CC(C)C)c4ccccc4n3n2)c(C)c1`, 1090 s; for `CCOC(=O)c1c(S(=O)(=O)N2CCC(C(=O)Nc3ccc(CC)cc3)CC2)c(C)n(C)c1C`, 943 s. Regarding `Cc1nc2cc(N3CCCC(C(=O)Nc4ccc(N5CCOCC5)cc4)C3)cnc2nc1C` (stereo not drawn), the RP-LC retention time came to 658 s.

The compound `CCn1ccc(C(=O)N2CCN(c3nc(CN4CCC(C)CC4)cs3)CC2)n1` registered an RP-LC retention time of 613 s. For `O=C1CCCN1c1ccc(Cn2nc3c(-c4nc(-c5ccccc5)no4)cccn3c2=O)cc1` the value was 839 s; for `O=C([C@@H]1C[C@H](F)CN1C(=O)Nc1cccc(Br)c1)N1CCCCC1`, 753 s. As for `CC(=O)Nc1ccc2c(c1)CN(C(=O)Cc1ccccc1F)C(C(=O)N(C)C)C2` (stereo not drawn), the figure is 1080 s.

`CCSc1nc2ccc(NS(=O)(=O)c3ccccc3)cc2s1`: the RP-LC retention time was 997 s. As for `COc1ccc(C(=O)c2cnc3ccc(OC)cc3c2N2CCN(C)CC2)cc1`, the figure is 561 s; as for `Cc1ccc2nc(-c3ccc(NC(=O)c4cc5cccnc5n(C)c4=O)cc3)sc2c1`, 864 s.

Consider `O=C(C1CC(=O)N(c2n[nH]c3cccc(F)c23)C1)N1CCN(c2ccccc2)CC1` (stereo not drawn), for which the RP-LC retention time is 718 s. `COCCC(=O)NC1CCN(C2=NS(=O)(=O)C(c3ccc(C)c(C)c3)=C2C)CC1` came in with an RP-LC retention time of 722 s. With `O=C(Nc1ccc(F)cc1F)Nc1c(-c2ccccc2)nc2ccccn12`, the RP-LC retention time worked out at 660 s.

The compound `Nc1cc(C2CCN(S(=O)(=O)Cc3ccccc3)CC2)no1` came in with an RP-LC retention time of 732 s. As for `O=C(Nc1ccc2c(c1)OCCO2)N1CCc2nc(-c3ccccc3)ncc2C1`, the figure is 848 s; as for `CCCc1nnsc1C(=O)NCc1nc(C)no1`, 656 s. As for `O=C(NCc1csc(C2CCCN(C(=O)C3CCCCC3)C2)n1)C1CC1` (stereo not drawn), the figure is 748 s.

Consider `CCOC(=O)CSc1nnc(NC(=O)c2ccc(S(=O)(=O)N(C)C)cc2)s1`, for which the RP-LC retention time worked out at 772 s.

For the compound `CCCCNC1(c2cc3ccccc3s2)CCCCC1`, the RP-LC retention time was determined as 831 s.

Consider `COc1ccc(-c2nnc(-c3cccnc3NCc3ccc(OC)c(OC)c3)o2)cc1`, for which the RP-LC retention time came out at 1060 s. Turning to `CC(=O)N1CCc2cc(N3CC(C(=O)Nc4cc(F)ccc4Cl)CC3=O)ccc21` (stereo not drawn), the RP-LC retention time was 749 s. As for `N[C@@H]1CCCN(c2c(/C=C3\SC(=O)NC3=O)cccc2-c2ccccc2)C1`, the figure is 772 s.

In turn, `O=C(CC1CCN(C(=O)Nc2ccc(Br)cc2)CC1)N1CCCCC1` registered an RP-LC retention time of 830 s. As for `O=C(Cn1ccc2ccccc21)Nc1ccccc1OC(F)(F)F`, the figure is 610 s; as for `COc1ccc(CNC(=O)CSc2cc(N3CCN(c4ccc(OC)cc4)CC3)ncn2)cc1`, 1090 s. As for `CCOC(=O)c1ccc2nc(C(F)(F)F)nc(NC(C)CCc3ccccc3)c2c1` (stereo not drawn), the figure is 1360 s; as for `Cn1c(C(O)c2ccccc2)nc2ccccc21` (stereo not drawn), 545 s; as for `O=C(c1ccc2ccccc2n1)N1C[C@@H](CO)[C@H](c2ccccn2)C1`, 590 s.

As for `CC(=O)c1cccc(NC(=O)Cn2c(=O)nc(NC3CCCC3)c3ccccc32)c1`, the RP-LC retention time came to 682 s.

For `CCOc1ccccc1NC(=O)N1CCC(n2cnc3ccccc3c2=O)CC1`, the RP-LC retention time worked out at 801 s. As for `CCNC(=O)N1CCCN(S(=O)(=O)C(C)C)CC1`, the figure is 614 s; as for `CC1CCCN(C(=O)C2CCN(CCc3c[nH]c4ncccc34)CC2)C1` (stereo not drawn), 586 s; as for `Cc1[nH]c(C(=O)N2CCCC(C(=O)NCCN3CCN(C)CC3)C2)c(C)c1C(=O)OC(C)C` (stereo not drawn), 598 s. For `CC1(C)CC(=O)C2=C(C1)N(Cc1cccnc1)C(=O)C2(NC(=O)C1CCCCC1)C(F)(F)F` (stereo not drawn) the value was 659 s; for `CCC(=O)N1CCc2ccccc2C1C(=O)NCCCN1CCCC1=O` (stereo not drawn), 646 s. As for `CCN(CC)CCCNC(=O)C(C)n1c2ccccc2c2cnn(C)c(=O)c21` (stereo not drawn), the figure is 559 s; as for `Cc1cc2nnc(SCC(=O)Nc3nc(-c4ccccc4)cs3)n2c2ccccc12`, 964 s.

The compound `CCC(=O)Nc1sc2c(c1C(=O)Nc1ccccc1)CCCC2` registered an RP-LC retention time of 704 s. Compound `CCOc1ccc(NC(=O)Cn2c(CC)nc3c(c2=O)CN(Cc2ccccc2)CC3)cc1` came in with an RP-LC retention time of 666 s. Compound `COc1ccc(OC)c(NC(=O)C2CCCN2S(=O)(=O)c2cc3c(cc2C)NC(=O)C(C)O3)c1` (stereo not drawn) had an RP-LC retention time of 830 s. As for `O=C1c2cc(NC(=O)C3(c4cccs4)CCCC3)ccc2OCCC2CCCCN12` (stereo not drawn), the figure is 974 s. On to `O=[N+]([O-])c1ccccc1S(=O)(=O)Nc1ccc(N2CCOCC2)cc1`, for which the RP-LC retention time was 749 s. As for `CC(C)c1ccc(C(=O)N2CCc3c(c(-c4nc(C5CC5)no4)nn3C)C2)cc1`, the figure is 971 s; as for `O=C(NCc1ccccc1)C1CCN(c2cnc3nccnc3c2)CC1`, 662 s; as for `COc1ccc(-c2nc(C)cc3nn(CC(=O)Nc4cc(C)cc(C)c4)c(=O)n23)cc1`, 906 s. As for `CC1=C(c2ccc(C(C)C)cc2)S(=O)(=O)N=C1N1CCC(C(=O)NCc2ccco2)CC1`, the figure is 939 s; as for `COc1ccccc1NC(=O)C1CC(=O)N(c2n[nH]c3cccc(F)c23)C1` (stereo not drawn), 728 s. Turning to `CCn1cc(S(=O)(=O)Nc2ccccc2F)c2cccnc21`, the RP-LC retention time amounted to 790 s.
